Test results published in ChEMBL document CHEMBL5131473, “One-pot synthesis of oxoaporphines as potent antitumor agents and investigation of their mechanisms of actions” (Eur J Med Chem, 2022).
Active and inactive are the calls of the source. The calls are words filed in the database; no cut-off is given here.

Key:
T-24 [1] = test: Induction of DNA damage in human T24 cells assessed as increase in gamma H2AX expression at 0.5 to 1 uM incubated for 24 hrs by Western blot analysis; assay type: functional, cell-based; conditions: dose 0.5-1 µM
T-24 [2] = test: Inhibition of colony formation in human T24 cells at 0.01 uM incubated for 24 hrs and measured for 10 days; assay type: functional, cell-based
T-24 [3] = test: Inhibition of cell migration in human T24 cells assessed as recovery of wound area at 0.25 uM measured after 24 hrs by wound healing assay based fluorescence microscopy; assay type: functional; parameters: scale not given: the % may be the effect or the level left
T-24 [4] = test: Induction of mitochondrial membrane potential dysfunction in human T24 cells assessed as decrease in ATP production at 1 uM; assay type: functional; parameters: scale not given: the % may be the effect or the level left
T-24 [5] = test: Induction of mitochondrial mediated apoptosis in human T24 cells assessed as increase in Bak protein expression at 0.5 to 1 uM incubated for 24 hrs by Western blotting analysis; assay type: functional, cell-based; conditions: dose 0.5-1 µM
T-24 [6] = test: Induction of mitochondrial Ca2+ production in human T24 cells assessed as increase in intracellular Ca2+ concentration at 0.5 uM by Rhod2-AM staining based fluorescence microscopic method; assay type: functional, cell-based
T-24 [7] = test: Induction of apoptosis in human T24 cells assessed as increase in caspase 3 activity at 0.5 uM (Rvb= 3.1%); assay type: functional
T-24 [8] = test: Induction of cell cycle arrest in human T24 cells assessed as accumulation of cells at S phase at 0.5 uM incubated for 24 hrs by propidium iodide/RNase A staining based flow cytometry analysis (reference value: 42.47 %); assay type: functional
T-24 [9] = test: Induction of cell cycle arrest in human T24 cells assessed as accumulation of cells at G1 phase at 1 uM incubated for 24 hrs by propidium iodide/RNase A staining based flow cytometry analysis (reference value: 51.71 %); assay type: functional
T-24 [10] = test: Induction of apoptosis in human T24 cells assessed as necrotic cells at 0.5 uM incubated for 24 hrs by Annexin-V/PI staining based flow cytometry analysis (reference value: 1.92 %); assay type: functional
T-24 [11] = test: Induction of apoptosis in human T24 cells assessed as early apoptotic cells at 1 uM incubated for 24 hrs by Annexin-V/PI staining based flow cytometry analysis (reference value: 3.27 %); assay type: functional
T-24 [12] = test: Induction of mitochondrial membrane potential dysfunction in human T24 cells assessed as mitochondrial fragment condensation at 0.5 to 1 uM by mito-tracker green dye based fluorescence microscopy; assay type: functional, cell-based; conditions: dose 0.5-1 µM
T-24 [13] = test: Induction of Ca2+ production in human T24 cells assessed as increase in intracellular Ca2+ concentration at 10 uM by Fluo3-AM staining based fluorescence microscopic method; assay type: functional, cell-based
T-24 [14] = test: Inhibition of colony formation in human T24 cells upto 5 uM incubated for 24 hrs and measured for 10 days; assay type: functional; conditions: up to 5 µM
T-24 [15] = test: Induction of mitochondrial mediated apoptosis in human T24 cells assessed as increase in Bak protein expression at 10 to 15 uM incubated for 24 hrs by Western blotting analysis; assay type: functional, cell-based; conditions: dose 10-15 µM
T-24 [16] = test: Induction of mitochondrial ROS generation in human T24 cells at 10 uM measured after 24 hrs by Mitotracker Red dye based confocal microscopy method; assay type: functional, cell-based
T-24 [17] = test: Induction of apoptosis in human T24 cells assessed as increase in caspase 9 activity at 15 uM (Rvb= 7.2%); assay type: functional
T-24 [18] = test: Induction of apoptosis in human T24 cells assessed as necrotic cells at 10 uM incubated for 24 hrs by Annexin-V/PI staining based flow cytometry analysis (reference value: 1.92 %); assay type: functional
T-24 [19] = test: Induction of apoptosis in human T24 cells assessed as early apoptotic cells at 10 uM incubated for 24 hrs by Annexin-V/PI staining based flow cytometry analysis (reference value: 3.27 %); assay type: functional
T-24 [20] = test: Induction of apoptosis in human T24 cells assessed as early apoptotic cells at 20 uM incubated for 24 hrs by Annexin-V/PI staining based flow cytometry analysis (reference value: 3.27 %); assay type: functional
T-24 [21] = test: Induction of DNA damage in human T24 cells assessed as increase in gamma H2AX phosphorylation at 2 uM incubated for 24 hrs by Hoechst33258 staining based immunofluorescence assay; assay type: functional, cell-based
T-24 [22] = test: Inhibition of cell migration in human T24 cells assessed as recovery of wound area at 1 uM measured after 24 hrs by wound healing assay based fluorescence microscopy; assay type: functional; parameters: scale not given: the % may be the effect or the level left
T-24 [23] = test: Induction of mitochondrial mediated apoptosis in human T24 cells assessed as increase in Bak protein expression at 2 to 4 uM incubated for 24 hrs by Western blotting analysis; assay type: functional, cell-based; conditions: dose 2-4 µM
T-24 [24] = test: Induction of ROS accumulation in human T24 cells assessed as increase in intracellular ROS level at 2 uM by […] based flow cytometry; assay type: functional, cell-based
T-24 [25] = test: Induction of apoptosis in human T24 cells assessed as increase in caspase 3 activity at 4 uM (Rvb= 3.1%); assay type: functional
T-24 [26] = test: Induction of apoptosis in human T24 cells assessed as increase in caspase 9 activity at 2uM (Rvb= 7.2%); assay type: functional
T-24 [27] = test: Induction of cell cycle arrest in human T24 cells assessed as accumulation of cells at G1 phase at 2 uM incubated for 24 hrs by propidium iodide/RNase A staining based flow cytometry analysis (reference value: 51.71 %); assay type: functional
T-24 [28] = test: Induction of mitochondrial membrane potential dysfunction in human T24 cells assessed as disappearance of cristae at 2 uM incubated for 24 hrs by TEM analysis; assay type: functional, cell-based
T-24 [29] = test: Induction of mitochondrial membrane potential dysfunction in human T24 cells assessed as increase in fragmentation at 2 uM incubated for 24 hrs by TEM analysis; assay type: functional, cell-based

`O=C1c2ccccc2-c2ccc([N+](=O)[O-])c3ccnc1c23` was tested, and the Activity (T-24 [1]) was “Active”, the inhibition (T-24 [2]) was “Active” and the Activity (T-24 [3]) was 15.9%. For the same compound, the Activity (T-24 [4]) was 47.3%, the Activity (T-24 [5]) was “Active” and the Activity (T-24 [6]) was “Active”. For the same compound, the Activity (T-24 [7]) was 30.6%, the Activity (T-24 [8]) was 47.37% and the Activity (T-24 [9]) was 3.53%. The Activity (T-24 [10]) was 1.54%, the Activity (T-24 [11]) was 39.5% and the Activity (T-24 [12]) was “Active”.
In the case of `O=C1c2ccccc2-c2cccc3ccnc1c23`, the Activity (T-24 [13]) is reported as “Active”, the “inhibition (INH)” value (T-24 [14]) is reported as 100% and the Activity (T-24 [15]) is reported as “Active”. For the same compound, the Activity (T-24 [16]) was “Active”, the Activity (T-24 [17]) was 26.3% and the Activity (T-24 [18]) was 3.31%. It also gave an Activity (T-24 [19]) of 14.4% and an Activity (T-24 [20]) of 36.6%.
In the case of `O=C1c2cc([N+](=O)[O-])ccc2-c2ccc([N+](=O)[O-])c3ccnc1c23`, the Activity (T-24 [21]) is reported as “Active”, the Activity (T-24 [22]) is reported as 20.1% and the Activity (T-24 [23]) is reported as “Active”. The Activity (T-24 [24]) was “Active”, the Activity (T-24 [25]) was 28% and the Activity (T-24 [26]) was 27.5%. The Activity (T-24 [27]) was 0.27%, the Activity (T-24 [28]) was “Active” and the Activity (T-24 [29]) was “Active”.
